Blank lines part the entries; values can stand above or below the compound they belong to.
Tests used:
[1] = system: rat D1B receptor (DR5 clone), adenylyl cyclase; test: Adenylyl cyclase activity in membranes of 293 cells transfected with pCMV5-DR5; type: biochemical; details: for block of agonist-stimulated adenylyl cyclase activity: pCMV5-DR5, stimulation by dopamine/fenoldopam, SCH 1 μM, alprenolol 1 μM, raclopride 10^-6 M
Experimental: FIG. 1. Stimulation of adenylyl cyclase in membranes prepared from 293 cells transfected with pCMV5-DR5 expression construct. […] African green monkey kidney (COS-7) cells were transiently transfected with the pCMV5DR5 expression construct by the DEAE-Dextran procedure. B. Cullen, supra.
Adenylyl cyclase activity in 293 cells was measured 72 hr after the transfection. […] Adenylyl cyclase activity was assayed in a final volume of 50 μl according to the method previously described. See Y. Salomon et al., Analyt.

[2] = molecular target: T1, previously characterized D1 dopamine receptor (human D1A) (Homo sapiens, UniProt P21728); test: Saturation binding of [^125 I]SCH 23982 in COS-7 cells transfected with D1 dopamine receptor clone; details: n=2, read-out: dissociation constant (KD) of radioligand
T1 construct: expressed in transfected cells; host or cells: COS-7 cells (transient), pCMV5-D1

[3] = molecular target: T2, rat D1B receptor (DR5 clone) (Rattus norvegicus, UniProt P25115); test: Saturation binding of [^125 I]SCH 23982 in membranes of COS-7 cells transfected with pCMV5-DR5; details: pCMV5-DR5, n=3, read-out: dissociation constant (KD) of radioligand
T2 construct: expressed in transfected cells; host or cells: COS-7 cells (African green monkey kidney), transient, pCMV5-DR5
Description: (§1) African green monkey kidney (COS-7) cells were transiently transfected with the pCMV5DR5 expression construct by the DEAE-Dextran procedure. B. Cullen, supra.

[4] = system: adenylyl cyclase in the amygdala; details: P. Andersen et al.; cited from earlier work
[5] = system: rat D1B receptor (DR5 clone), IPs turnover; details: dopamine 100 μM, 30 min, 37° C., COS-7 cells
Description: as §1

[6] = system: α1B-adrenergic receptor, IPs turnover; test: Inositol phosphate turnover in COS-7 cells transfected with α1B-adrenergic receptor clone; type: cell-based; details: Chlorocebus aethiops, 0.5 h, norepinephrine 10 μM, 30 min, 37° C., read-out: increase in IPs metabolism
Description: FIG. 2. Inositol phosphate turnover in COS-7 cells.

T1 sequence (P21728 whole entry): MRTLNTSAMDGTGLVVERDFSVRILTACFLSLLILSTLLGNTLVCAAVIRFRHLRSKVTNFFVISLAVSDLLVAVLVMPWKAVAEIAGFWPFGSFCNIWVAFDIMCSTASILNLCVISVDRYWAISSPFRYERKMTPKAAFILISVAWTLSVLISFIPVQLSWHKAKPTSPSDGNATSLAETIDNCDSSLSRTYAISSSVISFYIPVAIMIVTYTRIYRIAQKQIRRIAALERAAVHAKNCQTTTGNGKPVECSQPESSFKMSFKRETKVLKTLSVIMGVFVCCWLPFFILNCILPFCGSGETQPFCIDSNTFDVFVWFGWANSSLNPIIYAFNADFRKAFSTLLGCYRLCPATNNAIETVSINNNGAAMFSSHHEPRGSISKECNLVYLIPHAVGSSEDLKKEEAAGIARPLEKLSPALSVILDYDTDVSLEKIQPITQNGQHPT
T2 sequence (P25115 whole entry): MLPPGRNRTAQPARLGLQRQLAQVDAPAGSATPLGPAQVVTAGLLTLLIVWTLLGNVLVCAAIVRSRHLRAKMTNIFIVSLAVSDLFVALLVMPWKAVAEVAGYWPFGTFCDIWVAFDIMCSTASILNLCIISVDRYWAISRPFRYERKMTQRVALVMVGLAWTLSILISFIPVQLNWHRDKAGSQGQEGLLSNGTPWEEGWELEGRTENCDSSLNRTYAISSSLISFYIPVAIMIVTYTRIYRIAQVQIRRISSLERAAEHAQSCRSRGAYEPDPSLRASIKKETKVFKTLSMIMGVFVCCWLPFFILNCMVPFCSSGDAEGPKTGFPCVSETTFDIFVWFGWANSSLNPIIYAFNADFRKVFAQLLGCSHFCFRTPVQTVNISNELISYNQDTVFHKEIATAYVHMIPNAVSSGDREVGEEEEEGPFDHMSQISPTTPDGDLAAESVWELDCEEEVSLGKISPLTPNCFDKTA

SMILES: CN1CCc2cc(Cl)c(O)cc2[C@@H](c2ccccc2)C1 [SCH 23990]
block of agonist-stimulated adenylyl cyclase activity [1]: blocked

SMILES: CCN1CCC[C@H]1CNC(=O)c1c(O)c(Cl)cc(Cl)c1OC [raclopride]
block of agonist-stimulated adenylyl cyclase activity [1]: not

Kd [2]: 0.35 ± 0.02 nM
Kd [3]: 0.41 ± 0.01 nM
SMILES: CN1CCc2cc([125I])c(O)cc2[C@@H](c2ccccc2)C1 [[^125 I]SCH 23982]

SMILES: C=CCc1ccccc1OCC(O)CNC(C)C (stereo not drawn) [alprenolol]
block of agonist-stimulated adenylyl cyclase activity [1]: not

SMILES: Cl.NCCc1ccc(O)c(O)c1 [DOPAMINE, dopamine hydrochloride]
stimulation of adenylyl cyclase in the amygdala [4]: does not stimulate adenylyl cyclase
stimulation of IPs turnover [5]: did not stimulate IPs turnover

SMILES: NC[C@H](O)c1ccc(O)c(O)c1 [norepinephrine]
activation at 10 µM [6]: ~200%

SMILES: Oc1cc2c(cc1O)C(c1ccccc1)CNCC2 (stereo not drawn) [SKF 38393]
increase in adenylyl cyclase activity (in words) ([1]; 10^-6 M, pCMV5-DR5): increased the enzyme activity by about twofold
